Converted amounts (≈) assume the structure as drawn.
What was measured:
[1] = system: MRSA 10168; settings: mouse, in vivo
Protocol: To Balb/c mice, is injected (Sc.) the antimicrobial product or the antimicrobial+booster mixture.
At different post-injection times, the mice are euthanised, and blood sampled, heparined and centrifuged to extract plasma thereof
Antibacterial effects are measured after 24 h incubation. The successive dilutions enable the antimicrobial effect to be determined and compared with the MIC. The efficient concentration/MIC ratio is thus determined.

[2] = system: Pasteurella; experiment: etest on agar containing the booster; type: cell-based
Text: The corresponding tests are made based on the usual MIC test: the etest® (Biomerieux) strip is deposited onto the surface of a seeded agar medium in which the booster has been incorporated.
The control corresponds to the test made without cineol. A control is made in each solvent tested: distilled water, Tween/water and DMSO. • ED control=antibiotic alone in distilled water • DMSO control=antibiotic alone in DMSO • TE control=antibiotic alone in Tween® 80
Other e-tests are also made on Pasteurella.

[3] = system: Strain 10168/MRSA; experiment: Resistance: occurrence of resistant mutants; type: cell-based, S. aureus; settings: 4 times the MIC; 48 h incubation; DMSO
Protocol: (§1) After 48 h incubation, the presence or absence of colonies likely to be resistant mutants is observed.

[4] = system: Strain 9003/BLSE; experiment: Resistance: occurrence of resistant mutants; type: cell-based; settings: 4 times the MIC; 48 h incubation; DMSO
Protocol: as §1

[5] = system: Pseudomonas aeruginosa; experiment: MIC measurement in agar solid medium (CLSI); type: cell-based
Text: (§2) Inhibitory minimum concentration measurement tests are made in a solid agar medium according to international standards in force (CLSI M7-A9 Jan 12 standards): dispersion of the compounds to be tested in a Mueller Hinton gelose. An adaptation relating to the hydrophobicity of compounds and compositions is however necessary to disperse them in the medium: dilution of the compounds in a solvent. The compounds and compositions incorporated in the agar medium can be diluted beforehand in one or more solvents (Tween® 80 diluted with water, tween® 80 diluted with propylene, DMSO diluted with water). The strains are deposited onto the agar surface with a steers apparatus. In the examples, different dissolution methods for products are tested in parallel to circumvent the problems of water/solvent distribution coefficient of the molecules (antimicrobial and potentiator) whereas the bacteria grow only in the aqueous phase. The technical requirement will not intervene in in vivo tests. The same dilution methods can be implemented in a liquid medium (microplates and tubes). The same methodology is implemented with fungi.
MIC measurement: the minimum inhibitory concentration measurement tests are made in an agar solid medium according to international standards in force (CLSI standards), according to the previously defined protocol. The compounds and compositions incorporated in the agar medium can be diluted beforehand in one or more solvents (Tween® 80 diluted with water—3.4 ml Tween for 9.6 ml water—, tween® 80 diluted with propylene 10-3.4 ml Tween for 9.6 ml propylene—, or DMSO diluted with water).
The booster contribution as compared with the MIC of the antibiotic alone is expressed in a (MIC ATB)/(MIC ATB+booster) ratio. Thereby, gains are defined:
MIC 50 gain=(MIC50 of the antibiotic alone)/(MIC50 (antibiotic+booster))
MIC 90 gain=(MIC90 of the antibiotic alone)/(MIC90 (antibiotic+booster))
The tested strains are isolated from various human samples (blood, urine, pulmonary aspirates, etc.). The strains investigated in the following examples are chosen from the strains of the following table: […]

[6] = system: Escherichia coli; experiment: MIC measurement in agar solid medium (CLSI); type: cell-based
Text: as §2, with “fungi. MIC measurement: the minimum inhibitory concentration measurement tests are made in an agar solid medium according to international standards in force (CLSI standards), according to the previously defined protocol. […] The booster contribution as compared with the MIC of the antibiotic alone is expressed in a (MIC ATB)/(MIC ATB+booster) ratio. Thereby, gains are defined: […] The tested strains are isolated from various human samples (blood, urine, pulmonary aspirates, etc.). The strains investigated in the following examples are chosen from the strains of the following table: [table] […] The MICs are measured on different strains. Then, the MIC gain is calculated on the strains belonging to the same genus. The MIC gain expresses the following ratio: […]” for “fungi.”

[7] = system: Staphylococcus; experiment: MIC measurement in agar solid medium (CLSI); type: cell-based
Text: as §2, with “fungi. MIC measurement: the minimum inhibitory concentration measurement tests are made in an agar solid medium according to international standards in force (CLSI standards), according to the previously defined protocol. […] The booster contribution as compared with the MIC of the antibiotic alone is expressed in a (MIC ATB)/(MIC ATB+booster) ratio. Thereby, gains are defined: […] The tested strains are isolated from various human samples (blood, urine, pulmonary aspirates, etc.). The strains investigated in the following examples are chosen from the strains of the following table: [table] […] The MICs are measured on different strains. Then, the MIC gain is calculated on the strains belonging to the same genus. The MIC gain expresses the following ratio: […]” for “fungi.”

[8] = system: E. coli; experiment: Double dilution test; type: cell-based
Text: (§3) The double dilution test is a MIC measurement test made on successive dilutions of the 2 products of the composition. […] The summary table expresses for each strain and for each dilution of the booster the measured antibiotic MIC.
(§4) The code enabling the results to be interpreted is the following one: no sign “^+” if the MIC is equivalent with and without booster, a sign “^+” if the value is lower with booster.

[9] = system: Staphylococcus; experiment: Double dilution test; type: cell-based; settings: strain 8148
Text: as §3, §4

[10] = system: strain 08150; experiment: Post antibiotic effect; type: cell-based
[11] = system: MRSA; experiment: Sepsis model, in vivo test 2; parameters: species or system CD1 mice; settings: CIN 32 mg/kg without antibiotic; subcutaneous; count at 24 h
Protocol: 200 μL of a bacterial solution (MRSA) adjusted to 5.108 UFC/ml is injected by the intravenous route (retro-orbital route) to CD1 mice. The treatment is initiated 1 h after the bacteria injection by the subcutaneous route.
At 24 h, the mice are euthanized and a bacterial count is made in the kidney.
Controls: untreated group, group receiving 32 mg/kg cineol without antibiotic (CIN), group receiving 8 mg/kg antibiotic without cineol (AMC8). • (*) p<0.05 vs control, AMC8 and CIN • (£) p<0.05 vs control and CIN • ($) p<0.05 vs control, AMC8, CIN, AMC+CIN 128, AMC+CIN 256

[12] = system: strains; experiment: MIC of cineol alone, strains not named; type: cell-based; settings: cineol used alone; strains of the etest example
[13] = system: microorganisms grown in planktonic and biofilm cultures; settings: Hendry et al, J Antimicrob Chemother 2009; cited from earlier work

## amoxicillin/clavulanic acid [Augmentin®]
[1]
  Time spent beyond the MIC: <4 h

## O=C(O)c1cn(C2CC2)c2cc(N3CCNCC3)c(F)cc2c1=O [Ciprofloxacin, ciprofloxacin]
[2]; strain 14012, 5 mg cineol DMSO
  MIC (e-test): 0.004 µg/mL (≈ 0.0121 µM)
[2]; strain 14012, 5 mg cineol TE
  MIC (e-test): 0.004 µg/mL (≈ 0.0121 µM)
[2]; strain 14012, 5 mg cineol water
  MIC (e-test): 0.003 µg/mL (≈ 0.00905 µM)
[2]; strain 14012, 10 mg cineol DMSO
  MIC (e-test): 0.004 µg/mL (≈ 0.0121 µM)
[2]; strain 14012, 10 mg cineol TE
  MIC (e-test): 0.006 µg/mL (≈ 0.0181 µM)
[2]; strain 14012, 10 mg cineol water
  MIC (e-test): 0.004 µg/mL (≈ 0.0121 µM)
[2]; strain 14012, DMSO control
  MIC (e-test): 0.006 µg/mL (≈ 0.0181 µM)
[2]; strain 14012, ED control
  MIC (e-test): 0.004 µg/mL (≈ 0.0121 µM)
[2]; strain 14012, TE control
  MIC (e-test): 0.006 µg/mL (≈ 0.0181 µM)
[2]; strain 14013, 5 mg cineol DMSO
  MIC (e-test): 0.012 µg/mL (≈ 0.0362 µM)
[2]; strain 14013, 5 mg cineol TE
  MIC (e-test): 0.012 µg/mL (≈ 0.0362 µM)
[2]; strain 14013, 5 mg cineol water
  MIC (e-test): 0.012 µg/mL (≈ 0.0362 µM)
[2]; strain 14013, 10 mg cineol DMSO
  MIC (e-test): 0.012 µg/mL (≈ 0.0362 µM)
[2]; strain 14013, 10 mg cineol TE
  MIC (e-test): 0.012 µg/mL (≈ 0.0362 µM)
[2]; strain 14013, 10 mg cineol water
  MIC (e-test): 0.016 µg/mL (≈ 0.0483 µM)
[2]; strain 14013, DMSO control
  MIC (e-test): 0.012 µg/mL (≈ 0.0362 µM)
[2]; strain 14013, ED control
  MIC (e-test): 0.012 µg/mL (≈ 0.0362 µM)
[2]; strain 14013, TE control
  MIC (e-test): 0.016 µg/mL (≈ 0.0483 µM)
[3]
  colonies likely to be resistant mutants: invaded
[4]
  colonies likely to be resistant mutants: Numerous

## CC12CCC(CC1)C(C)(C)O2 [Cineol, cineol]
[5]; DMSO
  MIC 50 of cineol alone: 1%
  MIC 90 of cineol alone: 1%
[5]; Tween/prop glyc
  MIC 50 of cineol alone: >1%
  MIC 90 of cineol alone: >1%
[5]; Tween/water
  MIC 50 of cineol alone: >1%
  MIC 90 of cineol alone: >1%
[5]; water/water
  MIC 50 of cineol alone: >1%
  MIC 90 of cineol alone: >1%
[6]; DMSO
  MIC 50 of cineol alone: >1%
  MIC 90 of cineol alone: >1%
[6]; Tween/prop glyc
  MIC 50 of cineol alone: >1%
  MIC 90 of cineol alone: >1%
[6]; Tween/water
  MIC 50 of cineol alone: >1%
  MIC 90 of cineol alone: >1%
[6]; water/water
  MIC 50 of cineol alone: >1%
  MIC 90 of cineol alone: >1%
[7]; DMSO
  MIC 50 of cineol alone: >1%
  MIC 90 of cineol alone: >1%
[7]; Tween/prop glyc
  MIC 50 of cineol alone: >1%
  MIC 90 of cineol alone: >1%
[7]; Tween/water
  MIC 50 of cineol alone: >1%
  MIC 90 of cineol alone: >1%
[7]; water/water
  MIC 50 of cineol alone: >1%
  MIC 90 of cineol alone: >1%
[8]; strain 8137
  MIC of cineol alone: > 2.5 µg/mL
[8]; strain 8151
  MIC of cineol alone: > 2.5 µg/mL
[8]; strain 8155
  MIC of cineol alone: > 2.5 µg/mL
[8]; strain 8156
  MIC of cineol alone: > 2.5 µg/mL
[8]; strain ATCC 25922
  MIC of cineol alone: > 2.5 µg/mL
[9]
  MIC of cineol alone: > 2.5 µg/mL
[10]; time 0 h after 16 h contact, Cineol 4 mg/L (AC, where present, at its MIC)
  number of bacteria: 2.17E+07
[10]; time 0 h after 16 h contact, Cineol 16 mg/L (AC, where present, at its MIC)
  number of bacteria: 2.20E+07
[10]; time 1 h after 16 h contact, Cineol 4 mg/L (AC, where present, at its MIC)
  number of bacteria: 4.92E+07
[10]; time 1 h after 16 h contact, Cineol 16 mg/L (AC, where present, at its MIC)
  number of bacteria: 3.88E+07
[10]; time 2 h after 16 h contact, Cineol 4 mg/L (AC, where present, at its MIC)
  number of bacteria: 5.50E+07
[10]; time 2 h after 16 h contact, Cineol 16 mg/L (AC, where present, at its MIC)
  number of bacteria: 6.40E+07
[10]; time 3 h after 16 h contact, Cineol 4 mg/L (AC, where present, at its MIC)
  number of bacteria: 3.90E+08
[10]; time 3 h after 16 h contact, Cineol 16 mg/L (AC, where present, at its MIC)
  number of bacteria: 2.70E+08
[10]; time 4 h after 16 h contact, Cineol 4 mg/L (AC, where present, at its MIC)
  number of bacteria: 3.50E+08
[10]; time 4 h after 16 h contact, Cineol 16 mg/L (AC, where present, at its MIC)
  number of bacteria: 4.20E+08
[10]; time 5 h after 16 h contact, Cineol 4 mg/L (AC, where present, at its MIC)
  number of bacteria: 5.90E+08
[10]; time 5 h after 16 h contact, Cineol 16 mg/L (AC, where present, at its MIC)
  number of bacteria: 5.50E+08
[10]; time 6 h after 16 h contact, Cineol 4 mg/L (AC, where present, at its MIC)
  number of bacteria: 6.00E+08
[10]; time 6 h after 16 h contact, Cineol 16 mg/L (AC, where present, at its MIC)
  number of bacteria: 5.90E+08
[11]
  Mean ± SD log10 UFC/g kidney: 6.35 ± 0.29 log10 UFC/g kidney
[12]
  MIC50: > 10000 µg/mL
[13]
  MIC of cineole: 8000 to 64000 µg/mL
